Source: patent publication US20100099762A1, “COMBINATION THERAPY” (THE MENTAL HEALTH RESEARCH INSTITUTE OF VICTORIA, priority 2006, published 2010)

What was measured:
total glutathione levels = test: Total glutathione in striatum and liver of rats after CHX depletion; type: in vivo, Sprague-Dawley rats; details: 400 mg/kg i.p. 90 minutes after CHX 75 mg/kg; killed 1 hour after treatment
Procedure: Male Sprague-Dawley rats aged nine weeks and weighing an average of 390 g, were used in the study. Animals were maintained on a twelve hour light-dark cycle with water and food ad libitum. Two animals were housed per cage with room temperature maintained at 22° C.
All pharmacological agents were administered by intraperitoneal injection (i.p.) in a volume of 1 ml/kg, except where otherwise stated. All agents were prepared using saline as a diluent. Brain GSH depletion was performed using cyclohexene-1-one (CHX), administered at 75 mg/kg. Animals were returned to their cage for 90 minutes prior to administration of N-acetyl cysteine (NAC) or N-acetyl cysteine amide (NACA or “AD4”). Animals were killed by decapitation 1 hour after NACA or NAC treatment.
Frontal cortex, striatum and liver samples were immediately excised on ice, weighed and sonicated in SSA buffer (5% sulfosalicylic acid in 100 mM disodium hydrogen orthophosphate, 100 mM sodium dihydrogen orthophosphate and 1 mM EDTA, pH 7.5, 5 mL/g wet tissue). The samples were subsequently centrifuged (22×10^3 g for 10 minutes, 4° C.) and the […] was taken and frozen at −80° C. until analysed.
Total glutathione levels (μmol GSH/gram tissue) were determined in all samples. Samples were assayed according to Baker et al. (1990). Reduced glutathione standards ranging from 0 to 320 ρmol of GSH in 50 μL were prepared in a background buffer identical to the samples (SSA buffer) and then treated in parallel with samples. 50 μl of sample or standard was placed on a 96-well microtiter plate with 100 μL of assay reagent (final concentration in well; 0.15 mM DTNB, 0.2 mM NADPH, 1.0 U glutathione reductase/mL). Plates were assayed for a total of 2 minutes at 414 nm using a Multiskan MCC/340 MK II plate reader and Genesis V3.05 computer software. All chemicals were purchased from Sigma-Aldrich. Statistical evaluation of the data was conducted using analysis of variance (ANOVA).

[1] = oral NAC; cited from earlier work
plasma glutathione = test: Parallel study of plasma glutathione at the trial dose of NAC; type: in vivo; details: NAC at this dose (2 g daily)

Structure (SMILES): CC(=O)N[C@@H](CS)C(=O)O [NAC, N-acetyl cysteine]
- Total glutathione levels in the brain striatum after CHX depletion (total glutathione levels): rescue
- Total glutathione levels in the liver after CHX depletion (total glutathione levels): rescue
- Plasma half-life [1]: 2 to 3 h
- Plasma glutathione (plasma glutathione): significantly increased
